Results reported in US9890142B2, “PDE4 inhibitor” (Meiji Seika Pharma Co., Ltd., priority 2013, dated 2018).

Test system: PDE4
Assay: Evaluation of PDE4 inhibition (scintillation proximity assay)
Format: biochemical
Conditions: inhibition rate relative to control, test compound at 1 μM
In short: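 PDE4 was incubated 120 min at room temperature with [3H]-cAMP and compound in 50 mM Tris-HCl pH 7.5, 8.3 mM MgCl2, 1.7 mM EDTA, 0.3 mg/mL BSA. Product captured on ZnSO4-containing YSi-SPA beads and counted; inhibition calculated against DMSO control after no-enzyme blank subtraction.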

SMILES	PDE4 inhibitory activity (1 μM (%)) [%]
C[C@H]1CNCCN1c1nc2cc(Br)ccc2o1 [Example 167, (S)-5-Bromo-2-(2-methylpiperazin-1-yl)benzoxazole]	16
COc1cc(C#N)cc2nc(N3CCNC[C@@H]3C)oc12 [Example 168, (S)-5-Cyano-7-methoxy-2-(2-methylpiperazin-1-yl)benzoxazole]	13
COc1c(Cl)cc2nc(N3CCNC[C@@H]3C)oc2c1OC [Example 169, (S)-5-Chloro-6,7-dimethoxy-2-(2-methylpiperazin-1-yl)benzoxazole]	22
Cc1cc2oc(N3CCNC[C@@H]3C)nc2cc1Cl [Example 170, (S)-5-Chloro-6-methyl-2-(2-methylpiperazin-1-yl)benzoxazole]	15
COc1cc2oc(N3CCNC[C@@H]3C)nc2cc1Cl [Example 171, (S)-5-Chloro-6-methoxy-2-(2-methylpiperazin-1-yl)benzoxazole]	14
Cc1cc(N2CCCC2)cc2nc(N3CCNC[C@@H]3C)oc12 [Example 172, (S)-7-Methyl-5-(pyrrolidin-1-yl)-2-(2-methylpiperazin-1-yl)benzoxazole]	<10
Cc1cc(-c2ccsc2)cc2nc(N3CCNC[C@@H]3C)oc12 [Example 173, (S)-7-Methyl-5-(thiophen-3-yl)-2-(2-methylpiperazin-1-yl)benzoxazole]	35
CCc1cc(Cl)cc2nc(N3CCNC[C@H]3C)oc12 [Example 174, (R)-5-Chloro-7-ethyl-2-(2-methylpiperazin-1-yl)benzoxazole]	21
FC(F)(F)Oc1c(Cl)cc(-c2nccs2)c2oc(N3CCNCC3)nc12 [Example 175, 5-Chloro-2-(piperazin-1-yl)-7-(thiazol-2-yl)-4-(trifluoromethoxy)benzoxazole]	96
C[C@@H]1CN(c2nc3c(OC(F)(F)F)c(Cl)cc(-c4nccs4)c3o2)CCN1 [Example 176, (R)-5-Chloro-2-(3-methylpiperazin-1-yl)-7-(thiazol-2-yl)-4-(trifluoromethoxy)benzoxazole]	91
C[C@H]1CN(c2nc3c(OC(F)(F)F)c(Cl)cc(-c4nccs4)c3o2)CCN1 [Example 177, (S)-5-Chloro-2-(3-methylpiperazin-1-yl)-7-(thiazol-2-yl)-4-(trifluoromethoxy)benzoxazole]	93
C[C@@H]1CNCCN1c1nc2c(C(F)(F)F)c(Cl)cc(-c3ccccn3)c2o1 [Example 178, (R)-5-Chloro-2-(2-methylpiperazin-1-yl)-7-(pyridin-2-yl)-4-(trifluoromethyl)benzoxazole]	33
C[C@@H]1CNCCN1c1nc2c(C(F)(F)F)c(Cl)cc(-c3nccs3)c2o1 [Example 179, (R)-5-Chloro-2-(2-methylpiperazin-1-yl)-7-(thiazol-2-yl)-4-(trifluoromethyl)benzoxazole]	79
C[C@@H]1CNCCN1c1nc2c(C(F)(F)F)c(Cl)cc(-n3cccn3)c2o1 [Example 180, (R)-5-Chloro-2-(2-methylpiperazin-1-yl)=7-(1H-pyrazol-1-yl)-4-(trifluoromethyl)benzoxazole]	43
